Source: patent US20230124862A1, “BISMUTH THIOL COMPOUNDS AND COMPOSITIONS AND METHODS OF TREATING MICROBIAL CO-INFECTIONS” (Microbion Corporation, priority 2020, published 2023)
Converted amounts (≈) assume the structure as drawn. Read-outs that look alike come from different tables or passages of the source.

Experiments:
[1] = system: Anaerobes (Bacteroides fragilis, Clostridium difficile); test: Agar dilution MIC (Example 11); type: cell-based; settings: read-out: MIC
Experimental: The susceptibility of anaerobic bacteria was determined by agar dilution using Brucella Agar (BD/BBL; Lot No. 5237692) supplemented with 5 μg/mL hemin (Sigma, St. Louis, Mo.; Lot No. 108K1088), 1 μg/mL Vitamin K1 and 5% (v/v) laked sheep blood (Cleveland Scientific, Bath, Ohio; Lot No. 322799).
Agar Dilution MIC Testing (Anaerobic Bacteria and Gonococci): MIC values for anaerobic bacteria were determined using a reference agar dilution method as described by CLSI (6). Organisms were grown at 35° C. in the Bactron II Anaerobic Chamber (Shel Lab, Cornelius, Oreg.) for approximately 48 hr prior to the assay. Drug dilutions and drug-supplemented agar plates were prepared manually per CLSI (6). The plates were allowed to stand at room temperature for 1 hr to allow the agar surface to dry and pre-reduced for approximately 1 hr in the anaerobe chamber prior to inoculation. Each isolate was suspended to the equivalent of a 0.5 McFarland standard in Brucella broth using a turbidity meter (Dade Behring MicroScan, West Sacramento, Calif.). Each bacterial cell suspension was then diluted 1:10 in Brucella broth and transferred to wells in a stainless steel replicator block which was used to inoculate the test plates. The prongs on the replicator deliver approximately 1-2 μl of inoculum to an agar surface. The resulting inoculum spots contained approximately 1×10^5 CFU/spot. After the inoculum dried, the inoculated drug-supplemented agar plates and no drug growth control plates were incubated at 35° C. for 42-48 hr in the anaerobe chamber. The MIC was read per CLSI guidelines (6).

[2] = system: Anaerobes (Bacteroides fragilis, Clostridium difficile); settings: cited from earlier work
[3] = system: Haemophilus influenzae; test: Broth microdilution MIC, Haemophilus influenzae clinical isolates; type: cell-based
[4] = system: Haemophilus influenzae; settings: H. influenzae MMX 1224 (ATCC 49247); in µg/mL; cited from earlier work

Cc1ncc([N+](=O)[O-])n1CCO [Metronidazole]
MIC ([1]; Bacteroides fragilis, ATCC25285, B. fragilis MMX 123 (ATCC 25285), QC): 0.5 mg/L (≈ 2.92 µM) | MIC ([1]; C. difficile MMX 4381 (ATCC 700057), QC, CC^1): 0.5 mg/L (≈ 2.92 µM) | MIC ([1]; C. difficile MMX 5680 (NCTC 13336), ribotype 027, CC^1 MET^R): > 64 mg/L | MIC ([1]; C. difficile MMX 5681 (NCTC 13307), ribotype 012, CC^R): 0.5 mg/L (≈ 2.92 µM) | MIC ([1]; C. difficile MMX 8272, ribotype 255, CC^1): 0.5 mg/L (≈ 2.92 µM) | MIC ([1]; C. difficile MMX 8279, ribotype 005, CC^R): 0.5 mg/L (≈ 2.92 µM) | MIC ([1]; C. difficile MMX 8281, ribotype 010, CC^R): 8 mg/L (≈ 46.7 µM) | CLSI QC range of MIC ([2]; B. fragilis MMX 123 (ATCC 25285)): (0.25-1) μg/mL | CLSI QC range of MIC ([2]; C. difficile MMX 4381 (ATCC 700057)): (0.12-0.5) μg/mL

CC[C@H]1OC(=O)[C@H](C)[C@@H](O[C@H]2C[C@@](C)(OC)[C@@H](O)[C@H](C)O2)[C@H](C)[C@@H](O[C@@H]2O[C@H](C)C[C@H](N(C)C)[C@H]2O)[C@](C)(O)C[C@@H](C)CN(C)[C@H](C)[C@@H](O)[C@]1(C)O [AZM]
MIC ([3]; H. influenzae MMX 0797, BLNAR): 2 mg/L (≈ 2.67 µM) | MIC ([3]; H. influenzae MMX 1224 (ATCC 49247)): 2 mg/L (≈ 2.67 µM) | MIC ([3]; H. influenzae MMX 1302): 2 mg/L (≈ 2.67 µM) | MIC ([3]; H. influenzae MMX 1304): 2 mg/L (≈ 2.67 µM) | MIC ([3]; H. influenzae MMX 1740): 4 mg/L (≈ 5.34 µM) | MIC ([3]; H. influenzae MMX 1741): 1 mg/L (≈ 1.34 µM) | MIC ([3]; H. influenzae MMX 2795, BLNAR): 2 mg/L (≈ 2.67 µM) | MIC ([3]; H. influenzae MMX 2796, BLNAR): 2 mg/L (≈ 2.67 µM) | MIC ([3]; H. influenzae MMX 2798, BLNAR): 0.5 mg/L (≈ 0.668 µM) | MIC ([3]; H. influenzae MMX 2799, BLNAR): 0.5 mg/L (≈ 0.668 µM) | MIC ([3]; H. influenzae MMX 5458): 1 mg/L (≈ 1.34 µM) | MIC ([3]; H. influenzae MMX 5461): 2 mg/L (≈ 2.67 µM) | MIC ([3]; H. influenzae MMX 5469): 2 mg/L (≈ 2.67 µM) | MIC ([3]; H. influenzae MMX 5494): 1 mg/L (≈ 1.34 µM) | MIC ([3]; H. influenzae MMX 5495): 0.5 mg/L (≈ 0.668 µM) | MIC ([3]; H. influenzae MMX 5499): 2 mg/L (≈ 2.67 µM) | CLSI Quality Control Range (MIC) [4]: 1-4
